Source: PubChem BioAssay (NCI)
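Test compounds were applied to cells in 96-well plates for 48 hours at 5 doses. The concentration for 50% growth inhibition is given as GI50. The concentration for full growth arrest is given as TGI.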

Tests used:
Test in all cases: DTP human tumour cell line panel, 48 h
HCT-15 colon = test system: HCT-15 colon
OVCAR-4 ovarian = test system: OVCAR-4 ovarian
MDA-MB-435 = test system: MDA-MB-435
HOP-62 NSCLC = test system: HOP-62 NSCLC
LOX IMVI melanoma = test system: LOX IMVI melanoma
EKVX NSCLC = test system: EKVX NSCLC
SW-620 colon = test system: SW-620 colon
ACHN renal = test system: ACHN renal
M14 melanoma = test system: M14 melanoma
786-0 renal = test system: 786-0 renal
A549 NSCLC = test system: A549 NSCLC
SF-295 CNS = test system: SF-295 CNS
RXF 393 renal = test system: RXF 393 renal
SNB-19 CNS = test system: SNB-19 CNS
SK-MEL-5 melanoma = test system: SK-MEL-5 melanoma
A498 renal = test system: A498 renal
SF-268 CNS = test system: SF-268 CNS
CCRF-CEM leukemia = test system: CCRF-CEM leukemia
SNB-75 CNS = test system: SNB-75 CNS
SK-MEL-2 melanoma = test system: SK-MEL-2 melanoma
NCI-H226 lung = test system: NCI-H226 lung
MALME-3M melanoma = test system: MALME-3M melanoma
RPMI-8226 leukemia = test system: RPMI-8226 leukemia
SF-539 CNS = test system: SF-539 CNS
OVCAR-8 ovarian = test system: OVCAR-8 ovarian
SR leukemia = test system: SR leukemia
NCI-H522 lung = test system: NCI-H522 lung
COLO 205 colon = test system: COLO 205 colon
UACC-257 melanoma = test system: UACC-257 melanoma
U251 CNS = test system: U251 CNS

CCN1C(=O)N(CC)C2NNC(Sc3c(C(=O)O)c4ccccc4n(CCC(C)C)c3=O)=NC21 (centres undefined)
TGI (HCT-15 colon): 13.7 µM | GI50 (OVCAR-4 ovarian): 17.9 µM | TGI (OVCAR-4 ovarian): > 100 µM | GI50 (MDA-MB-435): 2.13 µM | TGI (MDA-MB-435): 5.5 µM | GI50 (HOP-62 NSCLC): 6.68 µM | TGI (HOP-62 NSCLC): 43 µM | GI50 (LOX IMVI melanoma): 5.11 µM | TGI (LOX IMVI melanoma): 18.5 µM | GI50 (EKVX NSCLC): 3.5 µM | TGI (EKVX NSCLC): 17.7 µM | GI50 (SW-620 colon): 6.5 µM | TGI (SW-620 colon): 31 µM | GI50 (ACHN renal): 5.75 µM | TGI (ACHN renal): 19.4 µM | GI50 (M14 melanoma): 8.47 µM | TGI (M14 melanoma): > 100 µM | GI50 (786-0 renal): 14.5 µM | TGI (786-0 renal): 62.8 µM | GI50 (A549 NSCLC): 6.07 µM | TGI (A549 NSCLC): 24.2 µM | GI50 (SF-295 CNS): 3.3 µM | TGI (SF-295 CNS): 13.2 µM | GI50 (RXF 393 renal): 2.16 µM | TGI (RXF 393 renal): 9.31 µM | GI50 (SNB-19 CNS): 4.56 µM | TGI (SNB-19 CNS): 25.1 µM | GI50 (SK-MEL-5 melanoma): 4.37 µM | TGI (SK-MEL-5 melanoma): 16.4 µM | GI50 (A498 renal): 19.6 µM | TGI (A498 renal): 54.3 µM | GI50 (SF-268 CNS): 10.4 µM | TGI (SF-268 CNS): > 100 µM | GI50 (CCRF-CEM leukemia): 4.62 µM | TGI (CCRF-CEM leukemia): > 100 µM | GI50 (SNB-75 CNS): 2.24 µM | TGI (SNB-75 CNS): 9.19 µM | GI50 (SK-MEL-2 melanoma): 9.35 µM | TGI (SK-MEL-2 melanoma): 31.2 µM | GI50 (NCI-H226 lung): 3.87 µM | TGI (NCI-H226 lung): 21 µM | GI50 (MALME-3M melanoma): 11.2 µM | TGI (MALME-3M melanoma): 28.3 µM | GI50 (RPMI-8226 leukemia): 4.61 µM | TGI (RPMI-8226 leukemia): > 100 µM | GI50 (SF-539 CNS): 2.11 µM | TGI (SF-539 CNS): 5.63 µM | GI50 (OVCAR-8 ovarian): 5.54 µM | TGI (OVCAR-8 ovarian): 51.7 µM | GI50 (SR leukemia): 22 µM | TGI (SR leukemia): > 100 µM | GI50 (NCI-H522 lung): 2.52 µM | TGI (NCI-H522 lung): 8.42 µM | GI50 (COLO 205 colon): 3.65 µM | TGI (COLO 205 colon): 11.6 µM | GI50 (UACC-257 melanoma): 19.6 µM | TGI (UACC-257 melanoma): 71.5 µM | GI50 (U251 CNS): 4.33 µM | TGI (U251 CNS): 36.9 µM
